Measurements: ChEMBL document CHEMBL3046090, “Mechanism of the Phytotoxic Action of Herbicidal N-Isobutyl-N-(4-substituted benzyl)-4-halo-2-pentenamides” (J Pestic Sci, 2002)
The source made the active and inactive calls. The rule behind the calls is not given here.

Experiments:
[1] = Dissociation constant, pKa of the compound; format: physicochemical
Gossypium hirsutum [2] = assay: Phytotoxicity against Gossypium hirsutum (cotton) seedlings assessed as cotyledons are killed but stems are not wilted measured under light conditions at 100 uM; format: functional, organism-based
Gossypium hirsutum [3] = assay: Phytotoxicity against Gossypium hirsutum (cotton) seedlings assessed as heavily dark-browning with wrinkling measured under dark conditions at 100 uM; format: functional, organism-based
Lathyrus oleraceus [4] = assay: Inhibition of Succinate-cytochrome c reductase in Pisum sativum (pea) mitochondrial respiratory-chain electron-transport system at 100 uM
Gossypium hirsutum [5] = assay: Phytotoxicity against Gossypium hirsutum (cotton) seedlings assessed as moderate darkening measured under dark conditions at 100 uM; format: functional, organism-based
Gossypium hirsutum [6] = assay: Phytotoxicity against Gossypium hirsutum (cotton) seedlings assessed as cotyledons are damaged with green spots measured under light conditions at 100 uM; format: functional
Gossypium hirsutum [7] = assay: Phytotoxicity against Gossypium hirsutum (cotton) seedlings assessed as light darkening measured under dark conditions at 100 uM; format: functional, organism-based
Gossypium hirsutum [8] = assay: Phytotoxicity against Gossypium hirsutum (cotton) seedlings assessed as complete killing measured under light conditions at 100 uM; format: functional, organism-based
Gossypium hirsutum [9] = assay: Phytotoxicity against Gossypium hirsutum (cotton) seedlings assessed as damage measured under dark conditions at 100 uM; format: functional, organism-based
Gossypium hirsutum [10] = assay: Phytotoxicity against Gossypium hirsutum (cotton) seedlings assessed as cotyledons are killed and stems are partially survived measured under light conditions at 100 uM; format: functional, organism-based
Lathyrus oleraceus [11] = assay: Inhibition of Succinate-cytochrome c reductase in Pisum sativum (pea) mitochondrial respiratory-chain electron-transport system at 0.1 uM

CCOc1cc(Oc2ccc(C(F)(F)F)cc2Cl)ccc1[N+](=O)[O-] [OXYFLUORFEN]
pKa [1]: 7.63

CC(Br)/C=C/C(=O)N(Cc1ccc(Cl)cc1)CC(C)C (stereo not given)
Activity (Gossypium hirsutum [2]): Active
Activity (Gossypium hirsutum [3]): Active
inhibition (Lathyrus oleraceus [4]): 0%

CC(Cl)/C=C/C(=O)N(Cc1ccc(C(F)(F)F)cc1)CC(C)C (stereo not given)
Activity (Gossypium hirsutum [5]): Active
Activity (Gossypium hirsutum [6]): 10%
inhibition (Lathyrus oleraceus [4]): 1.2%

CC(Cl)/C=C/C(=O)N(Cc1ccc(S(C)(=O)=O)cc1)CC(C)C (stereo not given)
Activity (Gossypium hirsutum [7]): Active
Activity (Gossypium hirsutum [6]): 50%
inhibition (Lathyrus oleraceus [4]): 5.8%

CC(Cl)/C=C/C(=O)N(Cc1ccc(C#N)cc1)CC(C)C (stereo not given)
Activity (Gossypium hirsutum [3]): Active
pKa [1]: 4.82
Activity (Gossypium hirsutum [8]): Active
inhibition (Lathyrus oleraceus [4]): 4.6%

COC(=O)CSc1cc(/N=c2\sc(=O)n3n2CCCC3)c(F)cc1Cl
Activity (Gossypium hirsutum [9]): inactive
Activity (Gossypium hirsutum [8]): Active

O=[N+]([O-])c1ccc(Oc2ccc(Cl)cc2Cl)cc1 [NITROFEN]
Activity (Gossypium hirsutum [9]): inactive
Activity (Gossypium hirsutum [6]): 10%

CC(Cl)/C=C/C(=O)N(Cc1ccc(Cl)cc1)CC(C)C (stereo not given)
Activity (Gossypium hirsutum [2]): Active
Activity (Gossypium hirsutum [5]): Active
inhibition (Lathyrus oleraceus [4]): 0%

CC(C)Oc1cc(-n2nc(C(C)(C)C)oc2=O)c(Cl)cc1Cl
Activity (Gossypium hirsutum [9]): inactive
Activity (Gossypium hirsutum [10]): Active

O=C1C2=C(CCCC2)C(=O)N1c1ccc(Cl)cc1 [CHLOROPHTHALIUM]
pKa [1]: 6.43

CCCCCC[C@H]1C(=O)O[C@H](C)[C@H](NC(=O)c2cccc(NC=O)c2O)C(=O)O[C@@H](C)[C@@H]1OC(=O)CC(C)C
inhibition (Lathyrus oleraceus [11]): 100%
